Measurements taken from PubChem BioAssay (NCI).
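A five-concentration, 48-hour dose response in 96-well plates underlies each endpoint, interpolated linearly between surrounding concentrations. TGI: total growth inhibition.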

Key:
Test in all cases: DTP human tumour cell line panel, 48 h
ACHN renal = system: ACHN renal
BT-549 breast = system: BT-549 breast
HCT-116 colon = system: HCT-116 colon
KM12 colon = system: KM12 colon
MALME-3M melanoma = system: MALME-3M melanoma
MOLT-4 leukemia = system: MOLT-4 leukemia
NCI-H460 lung = system: NCI-H460 lung
OVCAR-8 ovarian = system: OVCAR-8 ovarian
RPMI-8226 leukemia = system: RPMI-8226 leukemia
SK-MEL-5 melanoma = system: SK-MEL-5 melanoma
SNB-75 CNS = system: SNB-75 CNS
SW-620 colon = system: SW-620 colon
T-47D breast = system: T-47D breast
HL-60(TB) leukemia = system: HL-60(TB) leukemia

SMILES | TGI (ACHN renal) [µM] | TGI (BT-549 breast) [µM] | TGI (HCT-116 colon) [µM] | TGI (KM12 colon) [µM] | TGI (MALME-3M melanoma) [µM] | TGI (MOLT-4 leukemia) [µM] | TGI (NCI-H460 lung) [µM] | TGI (OVCAR-8 ovarian) [µM] | TGI (RPMI-8226 leukemia) [µM] | TGI (SK-MEL-5 melanoma) [µM] | TGI (SNB-75 CNS) [µM] | TGI (SW-620 colon) [µM] | TGI (T-47D breast) [µM] | TGI (HL-60(TB) leukemia) [µM]
CCCCc1c2c(c(C)c3c1C(=O)OC3)Oc1ccccc1O2 | > 100 | > 100 | 27.1 | > 100 | > 100 | > 100 | 18.2 | 35.7 | > 24.5 | > 26.2 | 13.4 | > 42 | > 100 | –
CCCCC(=O)Nc1ccc2c(C)cc(-c3ccc(-c4cc(-c5ccc(C)cc5)cc(-c5ccc(-c6cc(C)c7ccc(NC(=O)CCCC)nc7n6)cc5)n4)cc3)nc2n1 | > 100 | > 100 | > 100 | > 100 | > 100 | > 100 | > 100 | – | > 100 | > 100 | > 100 | – | > 100 | –
CCCCc1ccc(C#CC#Cc2ccc(CCCC)s2)s1 | > 100 | – | > 100 | > 100 | – | > 100 | > 100 | > 100 | > 100 | > 100 | > 100 | > 100 | > 100 | > 100
N#Cc1ccc(C2NN=CC23C(=O)c2ccccc2OC3c2ccccc2)cc1 (stereo unspecified) | > 100 | – | 69 | > 100 | > 100 | > 100 | > 100 | > 100 | 61.4 | 74.8 | – | > 100 | – | > 100
C=CC1(C)OC2(CCN(C(=O)OCC)CC2)OC1C (stereo unspecified) | > 100 | – | – | > 100 | > 100 | > 100 | > 100 | > 100 | > 100 | > 100 | > 100 | > 100 | > 100 | > 100
CC[C@@]1(CCC(=O)NCCc2c[nH]c3ccccc23)CCC(=O)N2CCc3c([nH]c4ccccc34)[C@H]21 | > 100 | 19.2 | > 100 | 19.4 | 25.4 | 34.4 | > 100 | – | 9.59 | > 100 | – | > 100 | > 100 | –
COc1cccc(NC(=O)C(=O)C2C=CCS2(=O)=O)c1 (stereo unspecified) | > 100 | – | > 100 | > 100 | > 100 | > 100 | > 100 | > 100 | > 100 | > 100 | > 100 | > 100 | – | > 100
O=C1O/C(=C\c2ccc(O)cc2)C(c2ccc(O)c(Cl)c2)=C1Cl | > 100 | – | – | > 100 | 74.5 | > 100 | > 100 | > 100 | > 100 | 43.2 | > 100 | > 100 | > 100 | 94.7
O=c1ccnc2ccc3n[nH][nH]c3c12 | > 100 | – | > 100 | > 100 | > 100 | > 100 | > 100 | > 100 | > 100 | > 100 | > 100 | > 100 | – | > 100
CN(C(=O)c1ccco1)C(=S)N1CCN(c2ccccn2)CC1 | > 100 | – | > 100 | > 100 | > 100 | > 100 | > 100 | > 100 | > 100 | > 100 | > 100 | > 100 | – | > 100
O=C(C/C=C/c1ccccc1)c1ccccc1 | 35.8 | – | 33.1 | 25.6 | – | 61.6 | 60.6 | 49.1 | 83.5 | 40.8 | 69.2 | > 100 | 42.7 | 66
COC(=O)C1C=CCON2CCc3c(n(S(=O)(=O)c4ccccc4)c4ccccc34)C12 (stereo unspecified) | > 100 | – | > 80.7 | > 55.6 | > 100 | > 71 | > 92.3 | > 100 | > 36 | > 58.4 | > 100 | > 34.3 | – | > 67.2
CC1=CCC2CC1NC(=O)CCOCCC(=O)NC2(C)C (stereo unspecified) | > 100 | – | > 100 | > 100 | – | > 100 | > 100 | > 100 | > 100 | > 100 | – | > 100 | – | –
COc1c2c(cc3c1C(=O)Cc1ccc4c(c1CN(C)CC3)OCO4)OCO2 | > 100 | – | > 100 | > 100 | > 100 | > 100 | > 100 | > 100 | > 100 | > 100 | > 100 | > 100 | – | > 100
CCOC(=O)C(CCc1ncnc2c1ncn2Cc1ccccc1)(CCc1ncnc2c1ncn2Cc1ccccc1)C(=O)OCC | > 100 | > 100 | > 100 | > 100 | > 100 | > 100 | > 100 | > 100 | > 100 | > 100 | – | > 100 | – | > 100
NC(=O)C(=CNC(=S)Nc1cccc(C(F)(F)F)c1)C(N)=O | > 100 | – | > 100 | > 100 | – | > 100 | > 100 | > 100 | > 100 | > 100 | > 100 | > 100 | > 100 | > 100
Cc1cccc2c1c(=O)c1c(O)cc(O)cc1n2C | > 100 | > 100 | > 100 | > 100 | > 100 | > 100 | > 100 | > 100 | > 100 | > 100 | > 100 | > 100 | – | > 100
COC1/C=C/C(C)C(C(C)C(OC)C(C)CCC(=O)C(C)C(CC(=O)O)OC)OC(=O)/C=C/C=C(\C)CC(OC)CC2=CC(=O)O[C@H](C2)C(C)C(OC)CC(OC)/C=C/C(C)C(OC)C1 (stereo partly specified) | > 4.35 | – | – | > 4.35 | – | > 4.35 | > 4.35 | > 4.35 | > 4.35 | > 4.35 | 0.0426 | > 4.35 | > 4.35 | 1.73
